ChEMBL document CHEMBL1136280, “Geraniol-derived 1,2,4-trioxanes with potent in-vivo antimalarial activity” (2003)
Values joined by “and” are separate entries in the source; they are usually repeats but may differ in a detail not shown here. Identical values can stand only once.

Assays:
Type in all cases: functional
Mus musculus [1] = assay: In vivo antimalarial activity against Plasmodium yoelii in Swiss mice (Mus musculus) on day 4 at the dose of 48 mg/kg/day intramuscular.
Mus musculus [2] = assay: Number of survival out of 5 mice on day 28 at the dose of 96 mg/kg/day i.m.; details: route intramuscular
Mus musculus [3] = assay: Mean survival time calculated for the mice which died during 28 day observation period at the dose of 96 mg/kg/day i.m.; details: route intramuscular
Mus musculus [4] = assay: In vivo antimalarial activity against Plasmodium yoelii in Swiss mice (Mus musculus) on day 4 at the dose of 96 mg/kg/day intramuscular.
Mus musculus [5] = assay: Mean survival time calculated for the mice which died during 28 day observation period at the dose of 96 mg/kg/day orally; details: route oral
Mus musculus [6] = assay: Number of survival out of 5 mice on day 28 at the dose of 96 mg/kg/day orally; details: route oral
Mus musculus [7] = assay: In vivo antimalarial activity against Plasmodium yoelii in Swiss mice (Mus musculus) on day 4 at the dose of 48 mg/kg/day orally; details: route oral
Mus musculus [8] = assay: Number of survival out of 5 mice on day 28 at the dose of 48 mg/kg/day i.m.; details: route intramuscular
Mus musculus [9] = assay: Mean survival time calculated for the mice which died during 28 day observation period at the dose of 48 mg/kg/day orally; details: route oral
Mus musculus [10] = assay: In vivo antimalarial activity against Plasmodium yoelii in Swiss mice (Mus musculus) on day 4 at the dose of 96 mg/kg/day orally; details: route oral
Mus musculus [11] = assay: Number of survival out of 5 mice on day 28 at the dose of 48 mg/kg/day orally; details: route oral
Mus musculus [12] = assay: Mean survival time calculated for the mice which died during 28 day observation period at the dose of 48 mg/kg/day i.m.; details: route intramuscular
Mus musculus [13] = assay: In vivo antimalarial activity against Plasmodium yoelii in Swiss mice (Mus musculus) on day 4 at the dose of 24 mg/kg/day intramuscular.
Mus musculus [14] = assay: Number of survival out of 5 mice on day 28 at the dose of 24 mg/kg/day i.m.; details: route intramuscular
Mus musculus [15] = assay: Mean survival time calculated for the mice which died during 28 day observation period at the dose of 24 mg/kg/day i.m.; details: route intramuscular
Mus musculus [16] = assay: Number of survival out of 5 mice on day 28 at the dose of 24 mg/kg/day orally; details: route oral
Mus musculus [17] = assay: In vivo antimalarial activity against Plasmodium yoelii in Swiss mice (Mus musculus) on day 4 at the dose of 24 mg/kg/day orally; details: route oral
Mus musculus [18] = assay: Mean survival time calculated for the mice which died during 28 day observation period at the dose of 24 mg/kg/day orally; details: route oral

Compound	Suppression (Mus musculus [1]) [%]	Activity (Mus musculus [2])	MST (Mus musculus [3])	Suppression (Mus musculus [4]) [%]	MST (Mus musculus [5])	Activity (Mus musculus [6])	Suppression (Mus musculus [7]) [%]	Activity (Mus musculus [8])	MST (Mus musculus [9])	Suppression (Mus musculus [10]) [%]	Activity (Mus musculus [11])	MST (Mus musculus [12])	Suppression (Mus musculus [13]) [%]	Activity (Mus musculus [14])	MST (Mus musculus [15])	Activity (Mus musculus [16])	Suppression (Mus musculus [17]) [%]	MST (Mus musculus [18])
C=C(CCC(O)c1ccc(Cl)cc1)C1COC2(OO1)C1CC3CC(C1)CC2C3 (stereo not drawn)	78.9	5	>28 and 15	100	>28	5	90.8	0	10.2	100	0	–	–	–	–	–	–	–
C=C(CCC(O)c1ccc(Cl)cc1)C1COC2(CCCCC2)OO1 (stereo not drawn)	97.1	5	>28	100	10.2	0	–	0	–	88.8	–	16	–	–	–	–	–	–
C=C(C)C(O)CCC(=C)C1COC2(OO1)C1CC3CC(C1)CC2C3 (stereo not drawn)	100	2	19.57	100	–	–	–	0	–	–	–	14.8	67.7	0	12.2	–	–	–
C=C(CCC(O)c1ccc(-c2ccccc2)cc1)C1COC2(CCCC2)OO1 (stereo not drawn)	100	2	17.33	100	16	0	94.3	0	12	100	0	16.75	85.2	0	11.8	–	–	–
C=C(CCC(O)c1ccc(Cl)cc1)C1COC2(CCCC2)OO1 (stereo not drawn)	98.4	2	14.57	100	7.4	0	–	0	–	29.6	–	14.57	–	–	–	–	–	–
C=C(CCC(O)c1cccc2ccccc12)C1COC2(CCCCC2)OO1 (stereo not drawn)	93.4	4	16	100	13	0	–	0	–	68.4	–	14.2	–	–	–	–	–	–
C=C(CCC(O)c1cccc2ccccc12)C1COC2(CCCC2)OO1 (stereo not drawn)	93.4	1	14.75	100	10.4	0	–	0	–	81.3	–	15.75	–	–	–	–	–	–
C=C(CCC(O)c1ccc(-c2ccccc2)cc1)C1COC2(CCCCC2)OO1 (stereo not drawn)	81	4	14	96.4	13.8	0	77.5	0	11.2	100	0	10.6	–	–	–	–	–	–
C=C(CCC(O)c1ccccc1)C1COC2(CCCC2)OO1 (stereo not drawn)	100	2	14.8	100	8.2	0	–	0	–	–	–	12.6	67.7	–	–	–	–	–
C=C(CCC(O)c1ccccc1)C1COC2(CCCCC2)OO1 (stereo not drawn)	90.5	0	14.4	94.5	11.6	–	–	0	–	65	–	12.6	–	–	–	0	–	–
C=C(CCC(O)c1ccc(-c2ccccc2)cc1)C1COC2(OO1)C1CC3CC(C1)CC2C3 (stereo not drawn)	–	3	14.5	79	17.33	3	100	–	17.57	100	2	–	–	–	–	0	90.4	8.8
C[C@@H]1CC[C@H]2[C@@H](C)C(=O)O[C@@H]3O[C@@]4(C)CC[C@@H]1[C@]32OO4 [ARTEMISININ]	100	–	>28	–	–	–	–	5	16	–	–	–	100	4	–	–	–	–
CCN(CC)CCCC(C)Nc1ccnc2cc(Cl)ccc12 (stereo not drawn) [CHLOROQUINE]	–	–	–	–	20	4	100	–	17.6	100	4	–	–	–	–	–	–	–
C=C(CCC(O)c1cccc2ccccc12)C1COC2(OO1)C1CC3CC(C1)CC2C3 (stereo not drawn)	–	2	15.33	72.13	17	3	100	–	15.57	100	2	–	–	–	–	0	87.1	10.4
C=C(CCC(O)c1ccccc1)C1COC2(OO1)C1CC3CC(C1)CC2C3 (stereo not drawn)	98.1	5	>28 and 15.57	100	16.57	2	62.4	2	9	100	0	–	–	–	–	–	–	–
